The target in one experiment is human NK-3 receptor (Homo sapiens (Human), UniProt P29371). Kind of experiment: 3H-SB222200 binding competition assay with human NK-3 receptor. The conditions noted are these: 3H-SB222200 displacement, CHO cell membranes expressing human NK3 receptor; read-out: Ki range. Summed up:
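Radioligand displacement: 5 nM tritiated SB222200 competed by varying compound concentrations on recombinant CHO membranes bearing human NK3, buffer pH 7.4 with HEPES, NaCl, CaCl2, MgCl2, BSA and saponin. Filter-bound radioactivity quantified; calculated Ki given as ranges from +++ (<500 nM) to # (>5 μM).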

Experiment [1] deals with circulating levels of luteinizing hormone (LH). Kind of experiment: Castrated male rat model, circulating levels of luteinizing hormone (LH). The conditions noted are these: castrated male SD rats, single intravenous dose (156 and 144: 10 mg/kg; 71: 15 mg/kg; 114: 20 mg/kg), 60 min post dosing (156 also 120 min), vs. baseline. It counts as in vivo.
Experiment [2] has as its system circulating levels of testosterone. Kind of experiment: Gonad-intact adult male rat, circulating levels of testosterone. The conditions noted are these: gonad-intact male SD rats, single intravenous 20 mg/kg dose, over 420 min (AUC). It counts as in vivo. On the procedure: Plasma testosterone levels are represented as an integrated testosterone response (AUC) over a 420 min period following dosing. […] Membrane suspensions were prepared from these cells. The following radioligand: [^125I]-His-MePhe7-Neurokinin B (PerkinElmer Cat # NEX285) was used in this assay. Binding assays were performed in a […]/1 mM CaCl2/5 mM MgCl2/0.5% BSA/10 μg/ml Saponin, at pH 7.4. Binding assays consisted of 25 μl of membrane suspension (approximately 5 μg protein/well in a 96 well plate), 50 μl of compound or reference ligand (MePhe7-Neurokinin B) at increasing concentrations (diluted in assay buffer) and 0.09 nM [^125I]-His-MePhe7-Neurokinin B. The plate was incubated 60 min at 25° C. in a water bath and then filtered over GF/C filters (Perkin Elmer, 6005174, presoaked in assay buffer without saponine for 2 h at room temperature) with a Filtration unit (Perkin Elmer). The radioactivity retained on the filters was measured by using the TopCount-NXT reader (Packard). […]

The text below walks through data of patent US10544150B2, “NK-3 receptor selective antagonist compounds, pharmaceutical composition and methods for use in NK-3 receptors mediated disorders” (Ogeda SA, priority 2010, dated 2020).

Structures are written as SMILES.

Sequence of human NK-3 receptor (P29371 whole entry): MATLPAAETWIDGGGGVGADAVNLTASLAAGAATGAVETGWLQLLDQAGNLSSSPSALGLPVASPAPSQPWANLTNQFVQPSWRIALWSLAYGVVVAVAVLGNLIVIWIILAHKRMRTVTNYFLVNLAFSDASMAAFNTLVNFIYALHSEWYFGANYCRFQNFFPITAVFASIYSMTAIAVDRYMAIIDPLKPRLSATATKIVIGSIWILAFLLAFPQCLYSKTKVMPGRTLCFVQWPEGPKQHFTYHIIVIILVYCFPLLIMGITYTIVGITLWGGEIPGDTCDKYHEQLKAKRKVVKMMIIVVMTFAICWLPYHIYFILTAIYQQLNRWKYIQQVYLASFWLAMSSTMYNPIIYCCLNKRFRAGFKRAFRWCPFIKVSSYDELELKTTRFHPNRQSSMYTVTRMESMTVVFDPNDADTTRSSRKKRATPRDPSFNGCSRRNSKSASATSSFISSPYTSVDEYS

In general, Ki refers to a dissociation constant, usually derived from enzyme kinetics or from competition with a known ligand. As for `C[C@@H]1c2nnc(-c3csc(-c4ccc(F)cc4F)n3)n2CCN1C(=O)c1ccc(-c2cccs2)cc1` [Compound 156, (R)-(3-(2-(2,4-difluorophenyl)thiazol-4-yl)-8-methyl-5,6-dihydro-[1,2,4]triazolo[4,3-a]pyrazin-7(8H)-yl)(4-(thiophen-2-yl)phenyl)methanone], the Ki at human NK-3 receptor is less than 500 nM. Moreover, in experiment [1], the “effect on LH serum levels” value is “significantly suppressed GnRH-mediated elevation of LH”. Moreover, the “effect on plasma testosterone levels” value in experiment [2] is given as “significantly suppressed plasma testosterone levels”.
